Source: patent US20130289089A1, “Pharmaceutical Compositions for Topical Delivery of Photosensitizers and Uses Thereof” (priority 2011, published 2013)

Tests used:
Assay type in all cases: physicochemical
[1] = Stability of supersaturated/reconstituted lemuteporfin solutions up to 4 hours (filtered, HPLC); conditions: up to 4 hours post-reconstitution
Description: Samples of the compositions are taken at various time points after combining the photosensitizing component and the excipient component. Half of the samples are filtered to remove any precipitates, for example through a 0.22 μm filter. The filtered solutions are analyzed, for example, using HPLC, for the content or concentration of photosensitizer. If the solution is stable, and no photosensitizer has precipitated out, then the concentration of photosensitizer in the filtered solution should be roughly the same as the concentration of photosensitizer in the unfiltered solution, within experimental error.
Three formulations (Batches C (Table 8), D (Table 9) and H (Table 10)) in which the Vial 1 photosensitizer component consisted of benzyl alcohol and lemuteporfin at three lemuteporfin concentrations, 0.1, 0.075 and 0.05% w/w in the final combined LTS solution were examined for stability after reconstitution with the remaining excipients in Vial 2.
Vial 2 contents were added to vial 1 for each formulation, mixed and sampled at time 0 and 4 hours after reconstitution. The samples were filtered through a 0.22 μm filter before analysis by HPLC. This analysis was performed to ensure that the combined product had adequate stability and would not precipitate before administration to a subject. […]

[2] = Solubility of lemuteporfin in various solvents (HPLC analysis)
Excerpt: The solubility of lemuteporfin in various solvent compositions is shown in the last column of Table 2. All values were obtained analytically by HPLC analysis.
Solubility results for lemuteporfin indicated maximum solubility in solvent-based formulations containing primarily benzyl alcohol. […] The addition of other solvents reduced solubility by approximately the amount of the new solvent introduced. Diethylene glycol monoethyl ether (DGME) is about 20% as efficient at dissolving lemuteporfin as benzyl alcohol.

[3] = Solubility of lemuteporfin in the LTS formulation (stirred, sampled, filtered)
Description: LTS was prepared by adding lemuteporfin to the other components in Table 4 (already pre-mixed) at room temperature. The solution was stirred and samples were removed at various time points, and filtered to determine the amount of undissolved lemuteporfin. The amount of lemuteporfin that dissolved was approximately 0.048%.
Studies were conducted to determine the effect of certain of the LTS excipients on the solubility of lemuteporfin.

lemuteporfin
Precipitation after reconstitution [1]: has not precipitated out of solution | Efficiency of DGME at dissolving lemuteporfin relative to benzyl alcohol ([2]; DGME versus benzyl alcohol): about 20% | Solubility, % w/w Lemuteporfin ([2]; solvent % w/w: DGME 45, benzyl alcohol 45, oleyl alcohol 5, oleic acid 5): 1.373 % w/w | Solubility, % w/w Lemuteporfin ([2]; solvent % w/w: DGME 50, benzyl alcohol 15, oleic acid 35): 0.230 % w/w | Solubility, % w/w Lemuteporfin ([2]; solvent % w/w: DGME 50, benzyl alcohol 15, oleyl alcohol 35): 0.200 % w/w | Solubility, % w/w Lemuteporfin ([2]; solvent % w/w: DGME 50, benzyl alcohol 50): 1.57 % w/w | Solubility, % w/w Lemuteporfin ([2]; solvent % w/w: DGME 52, benzyl alcohol 16, oleyl alcohol 16, oleic acid 16): 0.210 % w/w | Solubility, % w/w Lemuteporfin ([2]; solvent % w/w: DGME 65, oleyl alcohol 17.5, oleic acid 17.5): 0.271 % w/w | Solubility, % w/w Lemuteporfin ([2]; solvent % w/w: DGME 65, oleyl alcohol 35): 0.430 % w/w | Solubility, % w/w Lemuteporfin ([2]; solvent % w/w: DGME 90, isopropyl myristate 10): 0.430 % w/w | Solubility, % w/w Lemuteporfin ([2]; solvent % w/w: DGME 90, oleyl alcohol 5, oleic acid 5): 0.420 % w/w | Solubility, % w/w Lemuteporfin ([2]; solvent % w/w: DGME 90, oleyl alcohol 10): 0.420 % w/w | Solubility, % w/w Lemuteporfin ([2]; solvent % w/w: benzyl alcohol 30, ethanol (190) 70): 0.455 % w/w | Solubility, % w/w Lemuteporfin ([2]; solvent % w/w: benzyl alcohol 30, oleyl alcohol 70): 0.166 % w/w | Solubility, % w/w Lemuteporfin ([2]; solvent % w/w: benzyl alcohol 40, isopropyl myristate 60): 0.090 % w/w | Solubility, % w/w Lemuteporfin ([2]; solvent % w/w: benzyl alcohol 50, ethanol (190) 50): 0.453 % w/w | Solubility, % w/w Lemuteporfin ([2]; solvent % w/w: benzyl alcohol 50, oleic acid 50): 0.409 % w/w | Solubility, % w/w Lemuteporfin ([2]; solvent % w/w: benzyl alcohol 50, oleyl alcohol 50): 0.228 % w/w | Solubility, % w/w Lemuteporfin ([2]; solvent % w/w: benzyl alcohol 50, propylene glycol 50): 0.494 % w/w | Solubility, % w/w Lemuteporfin ([2]; solvent % w/w: benzyl alcohol 90, isopropyl myristate 10): 2.30 % w/w | Solubility, % w/w Lemuteporfin ([2]; solvent % w/w: benzyl alcohol 90, oleic acid 10): 2.33 % w/w | Solubility, % w/w Lemuteporfin ([2]; solvent % w/w: benzyl alcohol 90, oleyl alcohol 5, oleic acid 5): 2.22 % w/w | Solubility, % w/w Lemuteporfin ([2]; solvent % w/w: benzyl alcohol 90, oleyl alcohol 10): 2.24 % w/w | Solubility, % w/w Lemuteporfin ([2]; solvent: benzyl alcohol 100 % w/w): 2.55 % w/w | Solubility of lemuteporfin in the LTS solution system ([3]; isopropyl alcohol removed (data not shown)): ~0.07 % w/w | Amount of lemuteporfin that dissolved in the Table 4 components ([3]; room temperature): approximately 0.048% | Lemuteporfin content (% w/w), dissolved in formulation of Table 4 ([3]; room temperature, time point 0.17 hours): 0.0241 % w/w | Lemuteporfin content (% w/w), dissolved in formulation of Table 4 ([3]; room temperature, time point 2.47 hours): 0.0482 % w/w | Lemuteporfin content (% w/w), dissolved in formulation of Table 4 ([3]; room temperature, time point 4.37 hours): 0.0453 % w/w | Lemuteporfin content (% w/w), dissolved in formulation of Table 4 ([3]; room temperature, time point 6.37 hours): 0.0463 % w/w | Lemuteporfin content (% w/w), dissolved in formulation of Table 4 ([3]; room temperature, time point 23.5 hours): 0.0370 % w/w | Solubility of lemuteporfin in the LTS solution system ([3]; with isopropyl alcohol (data not shown)): approximately 0.03 % w/w | Solubility of lemuteporfin in the LTS solution system ([3]; with polysorbate 80 (data not shown)): 0.037 % w/w | Solubility of lemuteporfin in the LTS solution system ([3]; without polysorbate 80 (data not shown)): 0.027 % w/w
